Reference: patent US9763940B2, “Therapeutic use of P75 receptor antagonists” (Sanofi, priority 2011, dated 2017)
Where a name gives a salt, the structure may show the parent alone.

Legend:
[1] = tested on: SHR male rats, characterized by overactive bladder (OAB); assay: Cystometry after acute oral treatment in SHR rats with spontaneous overactive bladder; format: in vivo, rat; details: % of control period, mean±SEM
Experimental: (§1) Male adult SHR/N Ico rats (250 g; Charles River Italy), were housed 7 days prior to the surgery with free access to standard chow and water. Animals were used in accordance with sanofi international ethical code and the international principles governing the care and treatment of laboratory animals, (E.E.E Council Directive 86/609, DJL358, 1 Cec. 12, 1987) in a fully accredited AAALAC facility.
(§2) A lower midline abdominal incision was performed under general anesthesia with 2-3% isoflurane using aseptic techniques. Their body temperature was maintained at 37° C. using a homeothermic blanket. Polyethylene tubing was inserted into the dome of the bladder and secured in place with a 6-0 nylon purse-string suture. The distal end of the tubing was sealed, tunneled subcutaneously, and externalized at the back of the neck, out of the animal's reach. At the moment of the surgery animals were 16 weeks old.
(§3) After one week from surgery, animals were placed in a Small Animal Cystometry Lab Station (MED Associates, St. Albans, Vt.) for urodynamic measurements. Prior to the start of recording the bladder was emptied and the catheter was connected via a T-tube to a pressure transducer and microinjection pump. Isotonic saline (0.9% NaCl at room temperature) was infused into the bladder at a rate of 10 ml per hour. An analytical balance beneath the wire-bottomed animal cage measured the amount of urine voided during continuous cystometry. A single cystometrogram is defined as the simultaneous recording of intravesical pressure, infused volume and voided volume during a single filling-voiding cycle. At least 4 reproducible micturition cycles are recorded (basal period) after the initial stabilization period of 25 to 30 minutes, using MED-CMG software (Catamount Research &Development Company).
Then, vehicle or compounds were administered orally at 2 ml/kg.
Due to kinetic profile of compounds, urodynamic assessment was performed 1 h after treatment and at least 4 reproducible micturition cycles were recorded.
The cystometrograms are analyzed using a specific software, SOF-552 cystometry data analysis.
The following endpoints have been considered (FIG. 1): • 1. Intercontraction intervals (sec) (ICI)—Time between micturition events (micturition interval) • 2. Threshold pressure (mmHg) (TP)—Bladder pressure immediately prior to micturition • 3. Maximum bladder pressure (mmHg) (Max P)—Highest bladder pressure associated with voiding • 4. Minimum bladder pressure (mmHg) (Min P)—Lowest bladder pressure during bladder filling • 5. Infused volume (μl) (Inf. Vol)—Volume of saline infused during the micturition cycle • 6. Average bladder pressure (mmHg) (Aver P)—Average bladder pressure during bladder filling Exclusion Criteria
In order to limit the impact of inter-group or intra-group variability, all data were expressed as % of control period (100%), as mean±standard error of mean (SEM) and were averaged per group of treatment. A one way analysis of variance (ANOVA), followed by Newman-Keuls' test or Dunnett's test, were used. A probability value of p<0.05 was regarded as significant.
Effects of an Acute Treatment with p75 Antagonists on Urodynamic Parameters in SHR Rats Characterized by Spontaneous Overactive Bladder (OAB)
• Vehicle: 0.5% Polysorbate 80 (PS80) solution in buffered methylcellulose (MC 0.6%) • Compound n°1 at 10 mg/kg: suspension (0.5% PS80 plus MC 0.6%) • Compound n°2 at 3, 10, 30 mg/kg: suspension (0.5% PS80 plus MC 0.6%) • Compound n°3 at 10 mg/kg: suspension (0.5% PS80 plus MC 0.6%) • Compound n°4 at 10 mg/kg: suspension (0.5% PS80 plus MC 0.6%) Experimental Design:
In order to investigate the role of compounds according to the invention in the micturition pathway, 5 groups of 4-12 rats are used: • Group 1, Vehicle per os (po) (n=10) • Group 2, Compound n°1 at 10 mg/kg po (n=12) • Group 3, Compound n°2 at 10 mg/kg po (n=6) • Group 4, Compound n°3 at 10 mg/kg po (n=4) • Group 5, Compound n°4 at 10 mg/kg po (n=5) […]

[2] = tested on: SHR male rats, characterized by overactive bladder (OAB); assay: Cystometry after one-week chronic treatment in SHR rats with spontaneous overactive bladder; format: in vivo, rat; details: 10 mg/kg po for 7 days
Experimental: as §1, §2, §3
The cystometrograms are analyzed using a specific software, SOF-552 cystometry data analysis. […]
In order to limit the impact of inter-group or intra-group variability, all data were expressed as % of control period (100%), as mean±standard error of mean (SEM) and were averaged per group of treatment. […]

[3] = 10 mg/kg po, 1 h after treatment, FIG. 2
[4] = 10 mg/kg po, 1 h after treatment, FIG. 3

## O=C(CN1CC2CCC(C1)N2c1ncc(F)cn1)N1CC=C(c2ccc(Cl)c(C(F)(F)F)c2)CC1 [compound n°1, 1-[4-(4-chloro-3-trifluoromethyl-phenyl)-3,6-dihydro-2H-pyridin-1-yl]-2-[8-(5-fluoro-pyrimidin-2-yl)-3,8-diaza-bicyclo[3.2.1]oct-3-yl]-ethanone]
[1]; [3]
  Intercontraction intervals (ICI): 195.5±15.4%
[1]; [4]
  Infused volume (bladder capacity): 194.9±15.3%

## C[C@@H]1CN(c2ccc(C(=O)O)cn2)C[C@H](C)N1CC(=O)N1CCc2nn(-c3ccccc3)cc2C1 [compound n°2, 6-{(3S,5R)-3,5-Dimethyl-4-[2-oxo-2-(2-phenyl-2,4,6,7-tetrahydropyrazolo[4,3-c]pyridin-5-yl)ethyl]piperazin-1-yl}nicotinic acid hydrochloride]
[2]; SHR rats
  Effect on micturition pressure parameters: no effect
[2]; cystometry 24 h after last treatment, % of control values, mean±SEM, FIG. 6
  Intercontraction intervals (ICI): 173.8±21.1%
[2]; cystometry 24 h after last treatment, % of control values, mean±SEM, FIG. 7
  Infused volume (bladder capacity): 173.7±21.1%
[1]; [3]
  Intercontraction intervals (ICI): 199.7±28.5%
[1]; [4]
  Infused volume (bladder capacity): 198.9±28.3%
[1]; dose response, 3 mg/kg po, FIG. 4
  Intercontraction intervals (ICI): 160.9±21.8%
[1]; dose response, 3 mg/kg po, FIG. 5
  Infused volume (bladder capacity): 160.8±21.7%
[1]; dose response, 10 mg/kg po, FIG. 4
  Intercontraction intervals (ICI): 199.7±28.5%
[1]; dose response, 10 mg/kg po, FIG. 5
  Infused volume (bladder capacity): 198.9±28.3%
[1]; dose response, 30 mg/kg po, FIG. 4
  Intercontraction intervals (ICI): 210.5±24.7%
[1]; dose response, 30 mg/kg po, FIG. 5
  Infused volume (bladder capacity): 209.9±24.5%

## C[C@@H]1CN(c2ccc(C(=O)O)cn2)C[C@H](C)N1CC(=O)N1CC=C(c2cccc3ccoc23)CC1 [compound n°3, 6-{(3S,5R)-4-[2-(4-benzofuran-7-yl-3,6-dihydro-2H-pyridin-1-yl)-2-oxoethyl]-3,5-dimethylpiperazin-1-yl}nicotinic acid]
[1]; [3]
  Intercontraction intervals (ICI): 167.2±20.3%
[1]; [4]
  Infused volume (bladder capacity): 167.14±20%

## O=C(CN1CC2CCC(C1)N2c1cccnc1)N1CCc2nn(-c3ccccc3)cc2C1 [compound n°4, 1-(2-phenyl-2,4,6,7-tetrahydropyrazolo[4,3-c]pyridin-5-yl)-2-(8-pyridin-3-yl-3,8-diazabicyclo[3.2.1]oct-3-yl)ethanone]
[1]; [3]
  Intercontraction intervals (ICI): 186.3±26.9%
[1]; [4]
  Infused volume (bladder capacity): 186.2±26.9%
